From patent US20220370464A1, “COMPOSITIONS AND METHODS OF TREATING OR PREVENTING OCULAR INFECTIONS WITH FILOCICLOVIR” (Microbiotix, Inc., priority 2019, published 2022)
Where two headings read alike, the source gives them in different places.

Legend:
[1] = system: Adenovirus 5 (AdV5); experiment: Cytopathic effects (CPE) reduction assay, AdV5 in HFF cells, 384-well; type: cell-based, human adenovirus 5 (AdV5); details: for selectivity ratio: human, adenovirus 5, HFF cells, read-out: SI (selective index, CC50/EC50)
Protocol: Antiviral and cytotoxicity data were obtained in a series of three to five separate experiments for each virus to provide an accurate estimate of antiviral activity and statistical data. Each assay included positive and negative control compounds as well as infected and uninfected controls to ensure the integrity of the experiment.
The CPE reduction assays were performed in monolayers of human foreskin fibroblast (HFF) cells (5000/well) in 384-well plates in assay media consisting of MEM with Earle's salts, 2% FBS and standard concentrations of L-glutamine, penicillin and gentamycin. 5000 cells were seeded in 384-well microtiter plates and incubated at 37° C. in a humidified 5% CO2 incubator for 24 hours to allow for formation of confluent monolayers.
Cell monolayers were infected at a multiplicity of infection (MOI) of approximately 0.005 PFU/cell with virus strains including AdV5. […] Cytopathology was determined by the addition of CellTiter-Glo® reagent (Promega, Madison, Wis.). Concentrations of antiviral test compounds sufficient to reduce CPE by 50% (EC50) were interpolated from the experimental data using standard methods in Microsoft® Excel.

[2] = system: AdV7a; experiment: Plaque reduction antiviral IC50 assay in A549, AdV7a; type: cell-based, adenovirus 7a; details: unidentified adenovirus
Protocol: (§1) The effectiveness of filociclovir to inhibit a number of adenovirus strains associated with conjunctivitis were tested in an in vitro assay. To determine the in vitro IC50 concentrations, i.e., the concentration of filociclovir that inhibits adenovirus plaque formation by 50%, filociclovir and cidofovir (CDV) were tested against a panel of 7 ocular types of adenovirus.
(§2) 42 A549 24-well multiplates (1 per each drug and each virus strain) were prepared. 7 adenovirus serotypes were tested at a time. Virus dilutions from known titer of stock viruses (approx. 100 PFU/0.1 ml) were prepared with AdV3 L, AdV4 H, AdV5 M, AdV7a J, AdV8 E, AdV 19/64 K, and AdV37 ATCC. 0.1 ml (containing approx. 100 PFU) of each of the 7 viruses were plated onto all 24 wells of an A549 multiplate and incubated at 37° C. in a 5% CO2 water-vapor atmosphere for 3 hours.
(§3) Dilutions of filociclovir and cidofovir were prepared at 400, 40, 4.0, 0.4, 0.04, and 0.004 μM in 2× nutrient tissue culture media, following the dilution protocol: 7.5 ml of each of filociclovir and cidofovir dilution was added to a tube and 22.5 ml of methylcellulose in outgrowth medium (OG) was then added to each tube. 1 ml of each filociclovir and cidofovir dilutions was added to an additional 15 ml tube and 3 ml of OG was added to each tube. This was the overlay for the Adv8 plates. Normal methylcellulose overlay medium without any drug was used for the control wells for each plate.
(§4) For each virus plate, 3 wells were overlaid with each of the 6 final filociclovir and cidofovir concentrations (100, 10, 1.0, 0.1, 0.01, and 0.001 μM) and 6 wells with the control media. Plates were incubated at 37° C. in a 5% CO2 water-vapor atmosphere until plaques were visible. When plaques became visible, plates were stained with gentian violet and plaques were counted at 25λ using a dissecting microscope. The IC50 concentrations were determined from Fitted Line Plot regression analysis using Minitab. All assays were performed in triplicate.

[3] = system: AdV37; experiment: Plaque reduction antiviral IC50 assay in A549, AdV37; type: cell-based, adenovirus 37; details: unidentified adenovirus
Protocol: as §1, §2, §3, §4

[4] = system: AdV5; experiment: Adenovirus/NZW rabbit ocular model; type: in vivo, New Zealand White (NZW) rabbit
Protocol: The ability of filociclovir to inhibit adenovirus-related conjunctivitis was tested in a New Zealand White (NZW) rabbit ocular model.
20 NZW rabbits (1.1-1.4 kg) were given general anesthesia with ketamine & xylazine, topical anesthesia with proparacaine, and corneal scarification (12 cross-hatched strokes of a #25 needle) followed by inoculation in both eyes with 50 μl of […] of AdV5 M (6.0×10^8 PFU/ml). Eyes were closed and gently rubbed for 5 seconds to ensure contact of the virus on all ocular surfaces. All rabbits were treated with analgesia in the form of intramuscular injections of ketoprofen (1.5 mg/kg).
Beginning 2 hours after inoculation, all eyes were cultured for virus. Following topical anesthesia with proparacaine, a single cotton-tipped swab was placed into the lower fornix of each eye, rolled over the cornea into the upper fornix to recover adenovirus from the tear film and corneal and conjunctival surfaces. The swabs from each eye were placed individually into tubes containing 1 ml of outgrowth media and were frozen at −80° C. pending plaque assay.
On Day 1, the rabbits were divided into 4 treatment groups for drug administration as set forth in the chart below. The four treatment groups were 0.5% Filociclovir; 0.1% Filociclovir; 0.5% cidofovir; and the negative vehicle control (10% 2-Hydroxpropyl)-β-cyclodextrin, 0.2% cremophore).
Treatments began on Day 1 and drops were administered with at least a 2-hour interval between drops. The eyes of each rabbit were cultured for virus on days 1, 3, 4, 5, 7, 9, 11, and 14 post-inoculation (PI) at least 1 hour after the final drop. At various times during the course of the experiment, AdV5 titers were determined on A549 cell monolayers using a standard plaque assay. The ocular cultures to be titered were thawed, diluted (1:10) and inoculated onto A549 monolayers. The virus was adsorbed for 3 hours. Following adsorption, 1 ml of media plus 0.5% methylcellulose was added to each well, and the plates were incubated at 37° C. in a 5% CO2-water vapor atmosphere. After 7 days incubation, the cells were stained with 0.5% gentian violet, and the numbers of plaques were counted under a dissecting microscope (25λ). The viral titers were then calculated and expressed as plaque-forming units per milliliter (PFU/ml). The data were analyzed statistically using True Epistat and/or Minitab statistical software. Outcome measures included Daily AdV5-Positive Cultures per Total (FIG. 9), Duration of Shedding (FIG. 10) and Daily Viral Titers (FIG. 11). Significance was established at the p≤0.05 confidence level.

[5] = system: AdV3; experiment: Plaque reduction antiviral IC50 assay in A549, AdV3; type: cell-based, adenovirus 3; details: Human mastadenovirus B
Protocol: as §1, §2, §3, §4

[6] = system: VZV; details: α Herpesvirus, cited from earlier work
[7] = system: Adenovirus 5 (AdV5); details: AdV 5‡, summary table; cited from earlier work
[8] = 0.5% topical 2 times daily for 7 days, compared with Vehicle control
[9] = 0.1% topical 4 times daily for 10 days, compared with Vehicle control
[10] = 0.5% filociclovir compared with 0.5% cidofovir
[11] = 0.5% filociclovir compared with the 0.1% filociclovir group
[12] = 0.5% topical 4 times daily for 10 days, compared with Vehicle control

Nc1ccn(C[C@@H](CO)OCP(=O)(O)O)c(=O)n1 [CDV, cidofovir, reference compound]
EC50 ([1]; Human mastadenovirus C, AdV 384 Well CPE, HFF cells, average and SD from five independent experiments): 4000 ± 2000 nM | selectivity ratio [1]: 24 | IC50 ([2]; read-out: Mean IC50): 1810 nM | IC50 ([2]; read-out: Median IC50): 617 nM | IC50 ([3]; read-out: Mean IC50): 3960 nM | IC50 ([3]; read-out: Median IC50): 382 nM | adenovirus positive cultures per total (FIG. 9) [4, 8]: fewer number of adenovirus positive cultures per total on Days 7, 9, and 11 | adenovirus titers (FIG. 11) [4, 8]: significantly lower adenovirus titers on Days 3, 4, 5, 7, 9, and 11 | duration of shedding (FIG. 10) [4, 8]: shorter duration of shedding | IC50 ([5]; read-out: Mean IC50): 5780 nM | IC50 ([5]; read-out: Median IC50): 6020 nM

Nc1nc2c(ncn2/C=C2/CC2(CO)CO)c(=O)[nH]1 [Filociclovir, 2-amino-9-{(Z)-[2,2-bis(hydroxymethyl)cyclopropylidene]methyl}-3,9-dihydro-6H-purin-6-one]
EC50 ([6]; listed as filociclovir): ≤ 10000 nM | EC50 [6]: 1500 ± 1600 nM | concentration effective to reduce AdV replication (FIG. 1) ([1]; AdV5, tested 0.01 to 100 μM, 'as low as'): ≥ 0.2 µM | selectivity ratio [1]: 43 | IC50 ([2]; read-out: Mean IC50): 2120 nM | IC50 ([2]; read-out: Median IC50): 769 nM | IC50 ([3]; read-out: Mean IC50): 3530 nM | IC50 ([3]; read-out: Median IC50): 4520 nM | adenovirus positive cultures per total (FIG. 9) [4, 9]: fewer number of adenovirus positive cultures per total on Days 7, 9, and 11 | adenovirus titers (FIG. 11) [4, 9]: significantly lower adenovirus titers on Days 1, 3, 4, 5, 7, 9, and 11 | duration of shedding (FIG. 10) [4, 9]: shorter duration of shedding | adenovirus positive cultures per total [4, 10]: fewer number of adenovirus positive cultures per total on Day 4 | adenovirus titers [4, 10]: significantly lower adenovirus titers on Days 1, 3, 4, and 5 | adenovirus positive cultures per total (FIG. 9) [4, 11]: fewer number of adenovirus positive cultures per total on Day 4 | adenovirus titers (FIG. 11) [4, 11]: significantly lower adenovirus titers on Days 3, 4, and 5 | adenovirus positive cultures per total (FIG. 9) [4, 12]: fewer number of adenovirus positive cultures per total on Days 4, 5, 7, 9, and 11 | adenovirus titers (FIG. 11) [4, 12]: significantly lower adenovirus titers on Days 1, 3, 4, 5, 7, 9, and 11 | duration of adenovirus shedding (FIG. 10) [4, 12]: shorter duration of adenovirus shedding | EC50 [7]: 2200 ± 400 nM | IC50 ([5]; read-out: Mean IC50): 778 nM | IC50 ([5]; read-out: Median IC50): 756 nM
